Organism: Rattus norvegicus
Assay: DrugMatrix - Regimen: Daily Repeat
Assay type: toxicity, organism-based, Sprague-Dawley
Design: regimen Daily Repeat, gender Male, age 6-8 weeks
Conditions: in vivo, po, route oral GAVAGE, vehicle .5 % CMC; for BASOPHIL / EOSINOPHIL / ERYTHROCYTE COUNT / HEMATOCRIT / HEMOGLOBIN / LEUKOCYTE COUNT / LYMPHOCYTE / MEAN CORPUSCULAR HEMOGLOBIN / MEAN CORPUSCULAR HEMOGLOBIN CONCENTRATION / MEAN CORPUSCULAR VOLUME / MONOCYTE / NEUTROPHIL / PLATELET COUNT / ABSOLUTE BASOPHIL / ABSOLUTE EOSINOPHIL / ABSOLUTE LYMPHOCYTE / ABSOLUTE MONOCYTE / ABSOLUTE SEGMENTED NEUTROPHIL / NUCLEATED RED BLOOD CELLS: tissue Blood
[1] = 0 mg/kg, 72 h, dose level Control, time 3 day
[2] = 0 mg/kg, 72 h, tissue Plasma, dose level Control, time 3 day
[3] = 0 mg/kg, 120 h, dose level Control, time 5 day
[4] = 0 mg/kg, 120 h, tissue Plasma, dose level Control, time 5 day
[5] = 7 mg/kg, 72 h, dose level Low, time 3 day
[6] = 7 mg/kg, 72 h, tissue Plasma, dose level Low, time 3 day
[7] = 7 mg/kg, 120 h, dose level Low, time 5 day
[8] = 7 mg/kg, 120 h, tissue Plasma, dose level Low, time 5 day

Structure (SMILES): NC1=NC(=O)C(c2ccccc2)O1 (stereo unspecified) [PEMOLINE]
- BASOPHIL [1]: 0%
- EOSINOPHIL [1]: 0.33%
- ERYTHROCYTE COUNT [1]: 6.03 x10E6/uL
- HEMATOCRIT [1]: 38.8%
- HEMOGLOBIN [1]: 14.26 G/DL
- LEUKOCYTE COUNT [1]: 10.64 x10E3/uL
- LYMPHOCYTE [1]: 83.33%
- MEAN CORPUSCULAR HEMOGLOBIN [1]: 23.64 pg
- MEAN CORPUSCULAR HEMOGLOBIN CONCENTRATION [1]: 36.74 G/DL
- MEAN CORPUSCULAR VOLUME [1]: 64.32 fL
- MONOCYTE [1]: 3.33%
- NEUTROPHIL [1]: 13%
- PLATELET COUNT [1]: 1264.4 x10E3/uL
- ALANINE AMINOTRANSFERASE [2]: 38.83 u/L
- ALBUMIN [2]: 3.55 G/DL
- ALKALINE PHOSPHATASE [2]: 368.33 u/L
- ASPARTATE AMINOTRANSFERASE [2]: 66.17 u/L
- BLOOD UREA NITROGEN [2]: 15.67 mg/dL
- CHLORIDE [2]: 104.33 MEQ/L
- CHOLESTEROL [2]: 76.5 mg/dL
- CREATINE PHOSPHOKINASE [2]: 166.83 u/L
- CREATININE [2]: 0.52 mg/dL
- GLUCOSE [2]: 173.17 mg/dL
- PHOSPHORUS [2]: 11.68 mg/dL
- POTASSIUM [2]: 6.43 MEQ/L
- SODIUM [2]: 149.5 MEQ/L
- TOTAL PROTEIN [2]: 5.93 G/DL
- BASOPHIL [3]: 0%
- EOSINOPHIL [3]: 0%
- ERYTHROCYTE COUNT [3]: 5.88 x10E6/uL
- HEMATOCRIT [3]: 37.87%
- HEMOGLOBIN [3]: 14.48 G/DL
- LEUKOCYTE COUNT [3]: 12.43 x10E3/uL
- LYMPHOCYTE [3]: 84.17%
- MEAN CORPUSCULAR HEMOGLOBIN [3]: 24.65 pg
- MEAN CORPUSCULAR HEMOGLOBIN CONCENTRATION [3]: 38.25 G/DL
- MEAN CORPUSCULAR VOLUME [3]: 64.47 fL
- MONOCYTE [3]: 4.33%
- NEUTROPHIL [3]: 11.5%
- PLATELET COUNT [3]: 1182.33 x10E3/uL
- ALANINE AMINOTRANSFERASE [4]: 38.67 u/L
- ALBUMIN [4]: 3.55 G/DL
- ALKALINE PHOSPHATASE [4]: 342.5 u/L
- ASPARTATE AMINOTRANSFERASE [4]: 63.33 u/L
- BLOOD UREA NITROGEN [4]: 15.5 mg/dL
- CHLORIDE [4]: 104 MEQ/L
- CHOLESTEROL [4]: 75.5 mg/dL
- CREATINE PHOSPHOKINASE [4]: 142.5 u/L
- CREATININE [4]: 0.62 mg/dL
- GLUCOSE [4]: 165.17 mg/dL
- PHOSPHORUS [4]: 10.87 mg/dL
- POTASSIUM [4]: 6.85 MEQ/L
- SODIUM [4]: 150.17 MEQ/L
- TOTAL PROTEIN [4]: 5.93 G/DL
- ABSOLUTE BASOPHIL [5]: 0 CELLS/uL
- ABSOLUTE EOSINOPHIL [5]: 0 CELLS/uL
- ABSOLUTE LYMPHOCYTE [5]: 8380 CELLS/uL
- ABSOLUTE MONOCYTE [5]: 87.67 CELLS/uL
- ABSOLUTE SEGMENTED NEUTROPHIL [5]: 732.33 CELLS/uL
- BASOPHIL [5]: 0%
- EOSINOPHIL [5]: 0%
- ERYTHROCYTE COUNT [5]: 5.42 x10E6/uL
- HEMATOCRIT [5]: 34%
- HEMOGLOBIN [5]: 13.77 G/DL
- LEUKOCYTE COUNT [5]: 9.2 x10E3/uL
- LYMPHOCYTE [5]: 91.33%
- MEAN CORPUSCULAR HEMOGLOBIN [5]: 25.43 pg
- MEAN CORPUSCULAR HEMOGLOBIN CONCENTRATION [5]: 40.5 G/DL
- MEAN CORPUSCULAR VOLUME [5]: 62.87 fL
- MONOCYTE [5]: 1%
- NEUTROPHIL [5]: 7.67%
- NUCLEATED RED BLOOD CELLS [5]: 0 /100WBC
- PLATELET COUNT [5]: 1245 x10E3/uL
- ALANINE AMINOTRANSFERASE [6]: 52 u/L
- ALBUMIN [6]: 4.3 G/DL
- ALKALINE PHOSPHATASE [6]: 415.33 u/L
- ASPARTATE AMINOTRANSFERASE [6]: 90 u/L
- BLOOD UREA NITROGEN [6]: 14 mg/dL
- CARBON DIOXIDE [6]: 32 mmol/L
- CHLORIDE [6]: 99.33 MEQ/L
- CHOLESTEROL [6]: 78.67 mg/dL
- CREATINE PHOSPHOKINASE [6]: 330.33 u/L
- CREATININE [6]: 0.25 mg/dL
- GLUCOSE [6]: 141.33 mg/dL
- LACTATE DEHYDROGENASE [6]: 168.67 u/L
- LIPASE [6]: 10.33 u/L
- PHOSPHORUS [6]: 11.6 mg/dL
- POTASSIUM [6]: 6.56 MEQ/L
- SODIUM [6]: 145.47 MEQ/L
- TOTAL BILIRUBIN [6]: 0.2 mg/dL
- TOTAL PROTEIN [6]: 6.2 G/DL
- URIC ACID [6]: 1.03 mg/dL
- ABSOLUTE BASOPHIL [7]: 0 CELLS/uL
- ABSOLUTE EOSINOPHIL [7]: 0 CELLS/uL
- ABSOLUTE LYMPHOCYTE [7]: 13324.33 CELLS/uL
- ABSOLUTE MONOCYTE [7]: 202.67 CELLS/uL
- ABSOLUTE SEGMENTED NEUTROPHIL [7]: 1839.67 CELLS/uL
- BASOPHIL [7]: 0%
- EOSINOPHIL [7]: 0%
- ERYTHROCYTE COUNT [7]: 5.15 x10E6/uL
- HEMATOCRIT [7]: 31.77%
- HEMOGLOBIN [7]: 12.83 G/DL
- LEUKOCYTE COUNT [7]: 15.37 x10E3/uL
- LYMPHOCYTE [7]: 86.67%
- MEAN CORPUSCULAR HEMOGLOBIN [7]: 24.93 pg
- MEAN CORPUSCULAR HEMOGLOBIN CONCENTRATION [7]: 40.47 G/DL
- MEAN CORPUSCULAR VOLUME [7]: 61.63 fL
- MONOCYTE [7]: 1.33%
- NEUTROPHIL [7]: 12%
- NUCLEATED RED BLOOD CELLS [7]: 0 /100WBC
- PLATELET COUNT [7]: 1293.33 x10E3/uL
- ALANINE AMINOTRANSFERASE [8]: 55.67 u/L
- ALBUMIN [8]: 4.1 G/DL
- ALKALINE PHOSPHATASE [8]: 349 u/L
- ASPARTATE AMINOTRANSFERASE [8]: 73.67 u/L
- BLOOD UREA NITROGEN [8]: 18.33 mg/dL
